Experimental data from patent US20230381321A1, “CAMPTOTHECIN CONJUGATES” (priority 2022, published 2023).
pIC50: −log10 of the molar value. Read-outs that look alike come from different tables or passages of the source.

Legend:
Format in all cases: cell-based
[1] = test system: Hodgkin's lymphoma cells (L540cy); assay: In vitro potency (CellTiter-Glo, 96 h) on L540cy; settings: L540cy, 96 h, read-out: L540cy IC50
Description: (§1) In vitro potency was assessed on multiple cancer cell lines. All cell lines were authenticated by STR profiling at IDEXX Bioresearch and cultured for no more than 2 months after resuscitation. Cells cultured in log-phase growth were seeded for 24 hours in 96-well plates containing […] RPMI 1640 supplemented with 20% FBS. Serial dilutions of antibody-drug conjugates in cell culture media were prepared at 4x working concentrations, and 50 μL of each dilution was added to the 96-well plates. Following addition of test articles, cells were incubated with test articles for 4 days at […]. After 96 hours, growth inhibition was assessed by CellTiterGlo® (Promega, Madison, WI) and luminescence was measured on a plate reader.
(§2) Cell viability was determined by CellTiter-Glo staining after 96h exposure to ADC. ND=Not Determined. In the following tables, “Ex_” refers to a drug linker number. For example, “Ag4-Ex_4a” refers to a conjugate of an Ag4 antibody with drug linker 4a.

[2] = test system: anaplastic large cell lymphoma cells (Karpas299); assay: In vitro potency (CellTiter-Glo, 96 h) on Karpas299; settings: Homo sapiens, KARPAS-299, 96 h, read-out: Karpas299 IC50
Description: as §1, §2

[3] = test system: pancreatic cancer cells (BxPC3); assay: In vitro potency (CellTiter-Glo, 96 h) on BxPC3; settings: Homo sapiens, BXPC-3, 96 h, read-out: BxPC3 IC50
Description: as §1, §2

[4] = test system: anaplastic large cell lymphoma cells (DEL); assay: In vitro potency (CellTiter-Glo, 96 h) on DEL; settings: 96 h, read-out: DEL IC50
Description: as §1, §2

[5] = In vitro potency (CellTiter-Glo, 96 h) on Ls174T; settings: Homo sapiens, LS174T, read-out: Ls174T IC50
Description: as §1, §2

[6] = test system: B-lymphocyte cancer cells (SU-DHL4); assay: In vitro potency (CellTiter-Glo, 96 h) on SU-DHL4; settings: Homo sapiens, SU-DHL-4, 96 h, read-out: SU-DHL-4 IC50
Description: as §1, §2

[7] = test system: anaplastic large cell lymphoma cells (DELBVR); assay: In vitro potency (CellTiter-Glo, 96 h) on DELBVR; settings: 96 h, read-out: DELBVR IC50
Description: as §1, §2

[8] = test system: renal carcinoma cells (786-O); assay: In vitro potency (CellTiter-Glo, 96 h) on 786-O; settings: Homo sapiens, 786-0, 96 h, read-out: 786-O IC50
Description: as §1, §2

[9] = test system: acute myeloid leukemia cells (MOLM-13); assay: In vitro potency (CellTiter-Glo, 96 h) on MOLM-13; settings: Homo sapiens, MOLM-13, 96 h, read-out: MOLM-13 IC50
Description: as §1, §2

[10] = test system: breast cancer cells (MDA-MB-231); assay: In vitro potency (CellTiter-Glo, 96 h) on MDA-MB-231; settings: Homo sapiens, MDA-MB-231, 96 h, read-out: MDAMB 231 IC50
Description: as §1, §2

[11] = CPT free drugs, CellTiter-Glo after 96 h exposure

Row | Structure (SMILES) | pIC50 [1] | pIC50 [2] | pIC50 [3] | pIC50 [4] | pIC50 ([5]; 96 h) | pIC50 [6] | pIC50 [7] | pIC50 [8] | pIC50 [9] | pIC50 [10] | pIC50 [1, 11] | pIC50 [2, 11] | pIC50 [3, 11] | pIC50 [4, 11] | pIC50 [5, 11] | pIC50 [6, 11] | pIC50 [7, 11] | pIC50 [8, 11] | pIC50 [9, 11] | pIC50 [10, 11]
1 | CC[C@@]1(O)C(=O)OCc2c1cc1n(c2=O)Cc2c-1nc1cc3c(cc1c2CNCC(O)CN1CCOCC1)OCO3 (stereo partly drawn) [Compound 7i] | 7.32 | 7.08 | 7.24 | 8.05 | 6.96 | 7.49 | 7.77 | 6.93 | 6.74 | 6.74 | – | – | – | – | – | – | – | – | – | –
2 | CC[C@@]1(O)C(=O)OCc2c1cc1n(c2=O)Cc2c-1nc1cc3c(cc1c2CNC[C@H](O)CO)OCO3 [Compound 7n] | 7.64 | 7.24 | 7.33 | 8.30 | 7.41 | 7.68 | 8.22 | 7.18 | 6.86 | 7.02 | – | – | – | – | – | – | – | – | – | –
3 | CC[C@@]1(O)C(=O)OCc2c1cc1n(c2=O)Cc2c-1nc1cc3c(cc1c2CNC1CCN(C)CC1)OCO3 [Compound 7w] | 8.22 | 8.10 | 7.89 | 8.70 | 7.80 | 8.22 | 8.70 | 7.82 | 7.59 | 7.59 | – | – | – | – | – | – | – | – | – | –
4 | CC[C@@]1(O)C(=O)OCc2c1cc1n(c2=O)Cc2c-1nc1cc3c(cc1c2CNC(=O)CN)CCO3 [Compound 13] | 7.35 | 6.90 | 7.03 | 8.10 | 6.71 | 7.74 | 7.68 | 6.86 | 7.06 | 6.75 | – | – | – | – | – | – | – | – | – | –
5 | CC[C@@]1(O)C(=O)OCc2c1cc1n(c2=O)Cc2c-1nc1cc(F)c(C)c3c1c2[C@@H](NC(=O)CN)CC3 [Compound 13b] | – | – | – | – | – | – | – | – | – | – | 8.22 | 7.96 | 7.68 | 9.00 | 7.24 | 8.70 | 8.40 | 7.57 | 7.64 | 7.52
6 | CC[C@@]1(O)C(=O)OCc2c1cc1n(c2=O)Cc2c-1nc1cc3c(cc1c2CNC[C@@H](O)CN1CCCCC1)OCO3 [Compound 7z] | 7.32 | 6.82 | 6.90 | 7.77 | 7.10 | 7.41 | 7.80 | 6.91 | 6.84 | 6.51 | – | – | – | – | – | – | – | – | – | –
7 | CC[C@@]1(O)C(=O)OCc2c1cc1n(c2=O)Cc2c-1nc1cc(F)c(C)c(/C=C/c3ccc(OC)cc3)c1c2CN [Compound 2ai] | – | – | – | – | – | – | – | – | – | – | 7.33 | 7.33 | 7.24 | 8.22 | 7.19 | 7.89 | 8.30 | 7.19 | 7.47 | 7.10
8 | CC[C@@]1(O)C(=O)OCc2c1cc1n(c2=O)Cc2c-1nc1cc3c(cc1c2CN1CCC(N)CC1)OCO3 [Compound 8f] | 7.08 | 6.96 | 6.78 | 7.85 | 6.63 | 7.49 | 7.52 | 6.57 | 7.49 | 6.68 | – | – | – | – | – | – | – | – | – | –
9 | CC[C@@]1(O)C(=O)OCc2c1cc1n(c2=O)Cc2c-1nc1cc3c(cc1c2CNCCCNC)OCO3 [Compound 8a] | 8.30 | 8.10 | 7.82 | 9.00 | 7.32 | 8.40 | 8.70 | 7.96 | 8.52 | 7.66 | – | – | – | – | – | – | – | – | – | –
10 | CC[C@@]1(O)C(=O)OCc2c1cc1n(c2=O)Cc2c-1nc1cc3c(cc1c2CNC1CCNCC1)OCO3 [Compound 8e] | 7.44 | 7.14 | 7.21 | 8.15 | 6.96 | 7.60 | 8.00 | 6.98 | 7.05 | 6.99 | – | – | – | – | – | – | – | – | – | –
11 | CC[C@@]1(O)C(=O)OCc2c1cc1n(c2=O)Cc2c-1nc1cc(F)c(OC)c(Br)c1c2CN [Compound 2ad] | – | – | – | – | – | – | – | – | – | – | 8.40 | 8.15 | 7.66 | 9.00 | 7.77 | 8.40 | 9.00 | 8.05 | 8.30 | 7.82
12 | CC[C@@]1(O)C(=O)OCc2c1cc1n(c2=O)Cc2c-1nc1cc(F)c(F)c(F)c1c2CN [Compound 2ap] | – | – | – | – | – | – | – | – | – | – | 8.70 | 8.30 | 7.85 | 9.00 | 8.40 | 8.70 | 9.00 | 8.10 | 8.30 | 7.89
13 | CC[C@@]1(O)C(=O)OCc2c1cc1n(c2=O)Cc2c-1nc1cc3c(cc1c2CNC(C)=O)CCO3 [Compound 12] | 8.30 | 7.62 | 7.92 | 9.00 | 7.72 | 9.00 | 9.00 | 7.89 | 8.30 | 7.57 | – | – | – | – | – | – | – | – | – | –
14 | CC[C@@]1(O)C(=O)OCc2c1cc1n(c2=O)Cc2c-1nc1cc3c(cc1c2CNCCN1CCNCC1)OCO3 [Compound 8b] | 7.25 | 7.21 | 7.29 | 8.10 | 6.95 | 7.77 | 7.89 | 6.99 | 7.04 | 6.59 | – | – | – | – | – | – | – | – | – | –
15 | CC[C@@]1(O)C(=O)OCc2c1cc1n(c2=O)Cc2c-1nc1cc3c(cc1c2CN(C)CCCN)OCO3 [Compound 8, (5S)-14-[[3-aminopropyl(methyl)amino]methyl]-5-ethyl-5-hydroxy-7,18,20-trioxa-11,24-diazahexacyclo[11.11.0.02,11.04,9.015,23.017,21]tetracosa-1(13),2,4(9),14,16,21,23-heptaene-6,10-dione;2,2,2-trifluoroacetic acid] | – | – | – | – | – | – | – | – | – | – | 7.36 | 7.27 | 7.28 | 8.10 | 6.88 | 7.82 | 7.80 | 6.95 | 7.33 | 6.90
16 | C=Cc1c(C)c(F)cc2nc3c(c(CN)c12)Cn1c-3cc2c(c1=O)COC(=O)[C@]2(O)CC [Compound 2am, (S)-11-(aminomethyl)-4-ethyl-8-fluoro-4-hydroxy-9-methyl-10-vinyl-1,12-dihydro-14H-pyrano[3′,4′:6,7]indolizino[1,2-b]quinoline-3,14(4H)-dione] | 9.00 | 8.70 | 8.40 | 9.52 | 8.30 | 9.00 | 9.52 | 8.70 | 8.70 | 8.30 | – | – | – | – | – | – | – | – | – | –
17 | CC[C@@]1(O)C(=O)OCc2c1cc1n(c2=O)Cc2c-1nc1cc3c(cc1c2CNC(C)=O)OCO3 [Compound 12b] | 8.40 | 8.10 | 7.96 | – | 7.66 | 9.00 | 9.00 | 7.92 | 8.52 | 7.55 | – | – | – | – | – | – | – | – | – | –
18 | CC[C@@]1(O)C(=O)OCc2c1cc1n(c2=O)Cc2c-1nc1cc3c(cc1c2CNCCCN1CCN(C)CC1)OCO3 [Compound 7h] | 7.64 | 7.24 | 7.37 | 8.30 | 7.40 | 7.68 | 8.22 | 7.36 | 7.03 | 7.17 | – | – | – | – | – | – | – | – | – | –
19 | CC[C@@]1(O)C(=O)OCc2c1cc1n(c2=O)Cc2c-1nc1cc3c(cc1c2CN)COC3 [Compound 2ak] | – | – | – | – | – | – | – | – | 6.89 | – | – | – | – | – | – | – | – | – | – | –
